Reference: US20080226718A1, “Indole and Azaindole Derivatives For the Treatment of Inflammatory and Autoimmune Diseases” (Brane Discovery S.r.l, priority 2005, published 2008)

Legend:
Assay type in all cases: cell-based, SJL mice
[1] = test system: encephalitogenic lymphocytes; assay: Spontaneous adhesion of encephalitogenic T cells on purified VCAM-1; conditions: Mus musculus, Lymphocyte, 1 h; for inhibition at 5 µM: [cpd] 5 μM, read-out: Inhibition of Spontaneous Adhesion in encephalitogenic lymphocytes (% of control/non-treated cells) VCAM-1; for inhibition at 10 µM: [cpd] 10 μM; for inhibition at 10 µM / inhibition at 25 µM / inhibition at 50 µM: read-out: Inhibition of Spontaneous Adhesion in encephalitogenic lymphocytes (% of control/non-treated cells) VCAM-1 (converted); for inhibition at 25 µM: [cpd] 25 μM; for inhibition at 50 µM: [cpd] 50 μM
Protocol: (§1) Spontaneous adhesion of encephalitogenic lymphocytes was measured in adhesion assays on purified ICAM-1 and VCAM-1 as previously described (Constantin G. et al., J. Immunol. 162, 1144-1149, 1999). Autoreactive T cells were obtained from SJL mice immunized with PLP139-151 as described (Piccio L. et al., J. Immunol. 168, 1940-1949, 2002). Lymphocytes were treated with test compound at concentrations between 5-100 μM for 1 h, while control/untreated cells were treated with vehicle (DMSO). Results are expressed as percentage of inhibition over control (=100%) ±S.D and are the mean of three-four experiments.
(§2) ICAM-1 and VCAM-1 are adhesion molecules from the family of immunoglobulins and control the migration of lymphocytes through the endothelium during inflammatory responses. Encephalitogenic T cells are activated lymphocytes displaying spontaneous adhesion on ICAM-1 and VCAM-1 and have increased migration capacities in inflammation sites. Spontaneous adhesion of encephalitogenic lymphocytes was measured in adhesion assays on purified ICAM-1 and VCAM-1 as described in the method.

[2] = test system: encephalitogenic lymphocytes; assay: Spontaneous adhesion of encephalitogenic T cells on purified ICAM-1; conditions: Mus musculus, Lymphocyte, 1 h; for inhibition at 5 µM: [cpd] 5 μM, read-out: Inhibition of Spontaneous Adhesion in encephalitogenic lymphocytes (% of control/non-treated cells) ICAM-1; for inhibition at 10 µM: [cpd] 10 μM; for inhibition at 10 µM / inhibition at 25 µM / inhibition at 50 µM / inhibition at 100 µM: read-out: Inhibition of Spontaneous Adhesion in encephalitogenic lymphocytes (% of control/non-treated cells) ICAM-1 (converted); for inhibition at 25 µM: [cpd] 25 μM; for inhibition at 50 µM: [cpd] 50 μM; for inhibition at 100 µM: [cpd] 100 μM
Protocol: as §1, §2

[3] = test system: encephalitogenic lymphocytes; assay: Chemokine-induced adhesion of murine encephalitogenic T cells to ICAM-1; conditions: for Block of chemokine-induced autoreactive lymphocyte adhesion, in words: 5-50 μM for 1 h, 1 μM CCL19; for Chemokine-induced Adhesion in encephalitogenic lymphocytes, Mean counts ± S.D., in presence of MIP3-β stimulation: 1 μM CCL19 (MIP-3beta); for Chemokine-induced Adhesion in encephalitogenic lymphocytes, Mean counts ± S.D., in presence of MIP3-β stimulation / Adhesion in encephalitogenic lymphocytes, Mean counts ± S.D., in absence of MIP3-β stimulation: ICAM-1
Protocol: Adhesion was performed on purified integrin ligands and was evaluated as reported in Constantin G. et al., Immunity, 16, 759-769, 2000. Briefly, primary naïve lymphocytes, polymorphonuclear neutrophils (PMNs) or monocytes were isolated form healthy donors. In other experiments, murine autoreactive T cells were obtained from SJL mice immunized with PLP139-151 as described (Piccio L. et al., J. Immunol, 168, 1940-1949, 2002). Cells were resuspended at 4×10^6/ml in PBS, CaCl2, MgCl2 1 mM, 10% FCS, pH 7.2. Adhesion assays were performed on eighteen well glass slides coated overnight at 4° C. with ligands for CR3 (fibrinogen) or LFA-1 (ICAM-1). 20 μl of cell suspension were added to the wells and stimulated at 37° C. with 5 μl of agonists prior to washing, fixation and computer-assisted enumeration of bound cells.
Integrin activation was measured as induction of rapid adhesion triggered by the classical chemoattractant N-formyl-L-methionyl-L-leucyl-phenylalanine (fMLP) (100 nM) or by the CC chemokine MIP3β (CCL19, 1 μM). PMNs and monocytes were triggered to adhere to fibrinogen (CR3 ligand); naive human lymphocytes or murine encephalitogenic T cells were triggered to adhere to ICAM-1 (LFA-1 ligand). Triggered adhesion was evaluated after 2 min of stimulation under static conditions. The cells were pretreated at 37° C. for 30-60 min with the indicated concentrations of the test compound. Results are expressed as percentage of inhibition over control (=100%) and are the mean of three experiments in the case of human leukocytes. Results are expressed as mean counts and are the mean counts ±S.D of three experiments and are the mean of three experiments in the case of murine encephalitogenic lymphocytes.
Chemokines trigger rapid arrest of lymphocytes in blood vessels through pertussis toxin-sensitive G protein coupled receptors. Rapid adhesion to purified ICAM-1 was measured in in vitro adhesion assays using control/untreated cells and lymphocytes treated with concentration between 5-50 μM for 1 h. Autoreactive lymphocytes were then stimulated with 1 μM CCL19 (MIP-3beta) for 3 min. […] These compounds were already efficient in blocking adhesion using a concentration of 5 μM for the cell treatment.

SMILES | inhibition at 5 µM [1] [%] | inhibition at 10 µM [1] [%] | inhibition at 25 µM [1] [%] | inhibition at 50 µM [1] [%] | inhibition at 5 µM [2] [%] | inhibition at 10 µM [2] [%] | inhibition at 25 µM [2] [%] | inhibition at 50 µM [2] [%] | inhibition at 100 µM [2] [%] | Block of chemokine-induced autoreactive lymphocyte adhesion, in words [3] | Chemokine-induced Adhesion in encephalitogenic lymphocytes, Mean counts ± S.D., in presence of MIP3-β stimulation ([3]; [cpd] 5 μM) | Adhesion in encephalitogenic lymphocytes, Mean counts ± S.D., in absence of MIP3-β stimulation ([3]; [cpd] 5 μM) | Chemokine-induced Adhesion in encephalitogenic lymphocytes, Mean counts ± S.D., in presence of MIP3-β stimulation ([3]; [cpd] 10 μM) | Adhesion in encephalitogenic lymphocytes, Mean counts ± S.D., in absence of MIP3-β stimulation ([3]; [cpd] 10 μM) | Chemokine-induced Adhesion in encephalitogenic lymphocytes, Mean counts ± S.D., in presence of MIP3-β stimulation ([3]; [cpd] 25 μM) | Adhesion in encephalitogenic lymphocytes, Mean counts ± S.D., in absence of MIP3-β stimulation ([3]; [cpd] 25 μM) | Chemokine-induced Adhesion in encephalitogenic lymphocytes, Mean counts ± S.D., in presence of MIP3-β stimulation ([3]; [cpd] 50 μM) | Adhesion in encephalitogenic lymphocytes, Mean counts ± S.D., in absence of MIP3-β stimulation ([3]; [cpd] 50 μM)
COc1ccc(-c2c(C#N)n(CCCO)c3cc(OC)c(OC)cc23)cc1 [Example 44] | 29 | 39 | 43 | 84 | 75 | 84 | 88 | 91.5 | 99 | almost complete block | 2.1 ± 0.5 | 1.0 ± 0.9 | 3.7 ± 1.1 | 0.4 ± 1.7 | 1.8 ± 0.5 | 0.4 ± 0.1 | 0.1 ± 0.5 | 0.4 ± 0.5
COC(=O)c1[nH]c2cc(OC)c(OC)cc2c1-c1ccccc1 [Example 3] | 6 | 9 | 32.5 | 71.4 | 78 | 79.5 | 90 | 92 | 99 | almost complete block | 10.5 ± 3.0 | 1.5 ± 2.0 | 8.7 ± 3.0 | 1.8 ± 1.0 | 3.5 ± 1.5 | 1.2 ± 1.0 | 5.0 ± 2.0 | 0.5 ± 2.0
COc1ccc(-c2c3n(c4cc(OC)c(OC)cc24)CCNC3=O)cc1 [Example 27] | 11 | 31 | 35.5 | 82 | 69 | 76 | 82 | 90 | 99 | almost complete block | 17.7 ± 2.5 | 5.0 ± 2.2 | 18.1 ± 4.3 | 1.7 ± 1.0 | 9.3 ± 0.5 | 1.5 ± 0.1 | 5.1 ± 1.1 | 1.2 ± 1.1
COc1ccc(-c2c(C#N)[nH]c3cc(OC)c(OC)cc23)cc1 [Example 17] | 34 | 53 | 71.5 | 89 | 72.8 | 72.5 | 76 | 92 | 99 | almost complete block | 13.6 ± 3.5 | 2.0 ± 1.0 | 10.0 ± 3.0 | 0.9 ± 0.2 | 1.8 ± 1.0 | 0.6 ± 0.5 | 2.1 ± 0.9 | 0.4 ± 0.1
